From patent US20010000513A1, “Biphenyl butyric acids and their derivatives as inhibitors of matrix metalloproteinases” (priority 1996, published 2001)

Key:
[1] = test system: male Wistar rats, polyarthritis induced by Mycobacterium butyricum; experiment: Adjuvant Arthritis Model, hind paw edema; type: in vivo; settings: P <0.001
Description: Polyarthritis was induced by a modified method of the procedure developed by Chang, et al., Arthritis and Rheum., 1980;23:62. Briefly, male Wistar rats (100-115 g each) received subcutaneous injection of 0.1 mL of 10 mg/mL (or 1 mg) Mycobacterium butyricum suspended in paraffin oil in the distal third of the tail, using a glass tuberculin syringe and 25 gauge needle. M. Butyricum suspension was achieved by sonication in paraffin oil for 10 minutes with the vessel immersed in ice bath. Rates were randomized after injection and placed in cages. […] The rest were randomized and separated into dosing (test) groups (N=10 per group) and control (vehicle) group (N=20). The hind paws volume and the weights of each animal in each group was recorded and served as the initial values for the study. Hind paw swelling was assessed using mercury plethysmography beginning on Day 12 and every other day till Day 22 (final assessment).
The dose volume was 10 mL/kg PO. Animals were dosed twice daily for 10 days starting on Day 12. Also, hind paw volumes were measured on Days 12, 14, 16, 18, 20, and 22 as stated above. The results are reported as % inhibition of delta edema on Day 22. Delta edema is the difference in footpad edema between the day in which animals are assessed and that on Day 12 of the study. The percent inhibition is based on a comparison of the treatment groups to the vehicle group.

[2] = test system: Female Lewis rats sensitized to streptococcal cell walls; experiment: Streptococcal Cell Wall Model (SCW), paw swelling; type: in vivo; settings: rat SCW flare
Description: Female Lewis rats (125-150 g) are sensitized to the 100 P preparation of streptococcal cell walls (obtained from Lee Labs, Greyson, Ga.) with an intra-articular injection of 10 μL SCW containing 6 μg of the cell wall particles into one of the ankle joints. The contralateral ankle joint is injected with an equal volume of saline. Twenty-one days later, animals are placed in treatment groups (7 per group) according to their immediate response to the intra-articular injection of SCW (to obtain groups with equivalent responses). A control group is injected with saline. Each animal is then lightly anesthetized with ether, the paw volumes of each hind paw are determined by mercury plethysmography, and the animals are injected IV via the tail vein with a 0.25-mL dose of SCW containing 100 μg of the 100 P cell wall particles. Each group of rats receives an oral dose of compound for 7 days in an appropriate dosing vehicle beginning on Day 21. Paw swelling is determined by subtracting the paw volume of the saline injected ankle from the SCW sensitized ankle. Percent inhibition is calculated by comparing the compound treatment group with the control group. A one-way analysis of variance with a Dunnett's test for multiple comparisons is used for determination of statistical power. Rats were sensitized 21 days prior to initiating the flare response by systemic SCW. […] Paw volume was measured 24 hours after the first administration. Numbers represent the mean percent inhibition of swelling from 10 animals/treatment group.

[3] = test system: mice sensitized with a fragment of mouse myelin basic protein to induce EAE; experiment: Experimental Autoimmune Encephalomyelitis (EAE); type: in vivo
Description: Compounds were administered by oral route to mice sensitized with a fragment of mouse myelin basic protein to induce EAE. Mice were dosed daily for 21 days beginning 4 hours before sensitization on day one. EAE responses of compound treated groups were compared to those of a control group of mice sensitized identically and a sham-sensitized group treated with vehicle. The values reported in Table 2 include responses during compound treatment only.
Sensitization Female mice [PL/J(FI)×SJL/J, Jackson Labs], 11 weeks old, were sensitized s.c. (0.05 cc×2) at the base of the tail with an emulsion containing equal parts of mouse myelin basic protein (MBP) fragment (amino acids 1-9 of the N-terminus of MBP) in saline and Difco Complete Freund's Adjuvant (CFA) fortified with heat killed desiccated Mycobacteria tuberculosis (MT). Each mouse received 300 μg of MBP fragment (230 μg free base) and 200 μg MT followed by retrobulbar (IV) injection of 200 ng of B. pertussis toxin in 0.2 cc of saline. Two days later mice receive a second injection of B. pertussis toxin.
Neurological Assessment Animals were weighed and evaluated for symptoms of EAE before and frequently after sensitization. EAE score: (0.5=slight limp tail, 1=limp tail or slow to right, 1.5=slight limp tail and slow to right, 2=paresis/mild paralysis or incontinence, 2.5=mild paralysis and slow to right or complete paralysis (one hind limb), 3=hind limb paralysis (both), 3.5=hind limb paralysis (both) and limp torso; 4=additional fore limb paralysis, 4.5=head movement only, 5=moribund, death after previous EAE symptoms). Evaluators were blinded as to compound treatments and previous behavioral scores.
Disease symptoms are compared among groups for EAE severity, incidence, time to onset, cumulative score, and deaths. Peak EAE score: the mean of the highest score for each mouse in a group, independent of duration of symptoms; EAE incidence: the mean number of mice showing symptoms of EAE, defined as having EAE scores on any 3 consecutive days that total “≧3.0”. EAE deaths: an animal that died must have presented previous evidence of an EAE score greater than 0.5; EAE onset: the first of a 3-day series scoring a total of ≧3.0.
A Cumulative EAE score is calculated for each animal. A mean of all animals' cumulative scores is then determined for each day.
Experimental groups were assumed to be similar and were compared for statistical significance by a 2-tailed T-Test (p≦0.05).
Compound was homogenized manually with an aliquot of warm vehicle (1.0% hydroxypropyl-methylcellulose [Sigma] in water) in glass mortar tubes and homogenizing pestle. The smooth compound paste was gradually suspended in vehicle. Mice were dosed with compound and/or vehicle, 10 mL/kg in groups of ten. A sham-sensitized group was similarly dosed with vehicle.

[4] = test system: Male Swiss-Webster mice, 0.6% acetic acid i.p.; experiment: Acetic Acid-Induced Hyperalgesia Model, writhing; type: in vivo; settings: for % Inhibition (writhing): 1 hour before acetic acid
Description: Treatment groups (n=8) were divided so that 2 animals were placed into each of four 4″×4″×4″ adjacent plexiglass containers. Seven minutes after acid, writhing motions (abdominal contractions, concave arching of the back, and/or hindleg stretching) were tallied for 5 minutes. The ID40 value was calculated by linear regression analysis.

CN(C)N=C(CCC(=O)O)c1ccc(-c2ccc(Cl)cc2)cc1 [Example 3, 4-(4′-Chloro-biphenyl-4-yl)-4-(dimethylhydrazono)-butyric acid]
melting point: 158 to 160 °C

O=C1CCC(c2ccc(-c3ccc(Cl)cc3)cc2)=NO1 [Example 18, 3-(4′-Chloro-biphenyl-4-yl)-4,5-dihydro-6-oxo-6H-1,2-oxazine]
melting point: 190 to 192 °C

CSc1ccc(-c2ccc(C(CCC(=O)O)=NO)cc2)cc1 [Example 17, 4-Hydroxyimino-4-(4′-methylsulfanyl-biphenyl-4-yl)-butyric acid]
melting point: 162 to 164 °C

CON=C(CCC(=O)[O-])c1ccc(-c2ccc(Cl)cc2)cc1.[Na+] [Example 8, 4-(4′-Chloro-biphenyl-4-yl)-4-methoxyimino-butyric acid, sodium salt]
melting point: 234 to 238 °C

O=C(O)CCC(=NO)c1ccc(-c2ccc(Br)cc2)cc1 [Example 2, 4-(4′-Bromo-biphenyl-4-yl)-4-hydroxyimino-butyric acid]
melting point: 175 to 176 °C

O=C(O)CCC(=NO)c1ccc(-c2ccc(C(F)(F)F)cc2)cc1 [Example 16, 4-Hydroxyimino-4-(4′-trifluoromethyl-biphenyl-4-yl)-butyric acid]
melting point: 134 to 136 °C

COc1ccc(-c2ccc(C(CCC(=O)O)=NO)cc2)cc1 [Example 13, 4-Hydroxyimino-4-(4′-methoxy-biphenyl-4-yl)-butyric acid]
melting point: 157 to 160 °C

O=C(O)CCC(=NO)c1ccc(-c2ccc(Cl)cc2F)cc1 [Example 10, 4-(4′-Chloro-2′-fluoro-biphenyl-4-yl)-4-hydroxyimino-butyric acid]
melting point: 147.5 to 149.5 °C

O=C(O)CCC(=NO)c1ccc(-c2ccccc2F)cc1 [Example 11, 4-(2′-Fluoro-biphenyl-4-yl)-4-hydroxyimino-butyric acid]
melting point: 150 to 151.5 °C

O=C(O)CCC(=NO)c1ccc(-c2cccc(F)c2)cc1 [Example 15, 4-(3′-Fluoro-biphenyl-4-yl)-4-hydroxyimino-butyric acid]
melting point: 155 to 157 °C

O=C(O)CCC(=NO)c1ccc(-c2ccc(Cl)cc2)cc1 [Example 1, 4-(4′-Chloro-biphenyl−4-yl)-4-hydroxyimino-butyric acid]
% Inhibition of delta edema on Day 22 ([1]; 3.0 mg/kg bid PO for 10 days from Day 12): 68.1%
% Inhibition of delta edema on Day 22 ([1]; 10.0 mg/kg bid PO for 10 days from Day 12): 84.4%
% Inhibition of delta edema on Day 22 ([1]; 30.0 mg/kg bid PO for 10 days from Day 12): 99.9%
% Inhibition at Day 4 (paw swelling) ([2]; 3 mg/kg bid oral): 71%
% Inhibition at Day 4 (paw swelling) ([2]; 10 mg/kg bid oral): 86%
% Inhibition at Day 4 (paw swelling) ([2]; 30 mg/kg bid oral): 86%
effect on EAE cumulative score ([3]; 50 mg/kg oral): reduced the EAE cumulative score
EAE Onset ([3]; 50 mg/kg oral daily for 21 days, control 12.2 ± 0.9, p ≦0.05 vs control): 16.2 ± 1.0 days
EAE Cumulative Score ([3]; 50 mg/kg oral daily for 21 days, control 31.6 ± 1.7, p ≦0.05 vs control): 17.9 ± 2.8
EAE Deaths ([3]; 50 mg/kg oral daily for 21 days, during compound treatment, control 2/10): 0/10
EAE Incidence ([3]; 50 mg/kg oral daily for 21 days, mice with EAE/group, control 10/10): 9/10
Peak EAE Score ([3]; 50 mg/kg oral daily for 21 days, responses during compound treatment only, control 4.2 ± 0.1): 3.8 ± 0.3
EAE-induced deaths to Day 43 ([3]; 50 mg/kg oral, to Day 43): no EAE-induced deaths
delay of the onset of EAE ([3]; dosed at 50 mg/kg oral): 4 days
% Inhibition (writhing) ([4]; 0.03 mg/kg oral): 7%
% Inhibition (writhing) ([4]; 0.1 mg/kg oral): 26%
% Inhibition (writhing) ([4]; 0.3 mg/kg oral): 37%
% Inhibition (writhing) ([4]; 1 mg/kg oral): 41%
% Inhibition (writhing) ([4]; 10 mg/kg oral): 65%
ID40 ([4]; oral, calculated by linear regression analysis): 0.65 mg/kg

Cc1ccc(-c2ccc(C(CCC(=O)O)=NO)cc2)cc1 [Example 12, 4-Hydroxyimino-4-(4′-methyl-biphenyl-4-yl)-butyric acid]
melting point: 176.5 to 177.5 °C

CON=C(CCC(=O)O)c1ccc(-c2ccc(Cl)cc2)cc1 [Example 9, 4-(4′-Chloro-biphenyl-4-yl)-4-methoxyimino-butyric acid]
melting point: 183 to 186 °C

N#Cc1ccc(-c2ccc(C(CCC(=O)O)=NO)cc2)cc1 [Example 14, 4-(4′-Cyano-biphenyl-4-yl)-4-hydroxyimino-butyric acid]
melting point: 157 to 159 °C
